Measurements: patent US20130137573A1, “HERBICIDAL COMPOSITIONS COMPRISING, AND METHODS OF USE OF, HERBICIDALLY ACTIVE PYRANDIONES” (priority 2009, published 2013)

Assays:
Assay type in all cases: in vivo
[1] = test system: Leptochloa chinensis (LEFCH); assay: Biological Example 4 (Test 110): wet seeded rice (WSR) method, LEFCH damage; conditions: EC050 + 0.2% Adsee, foliar spray, LEFCH 3 leaf, 14 days after application
Text: (§1) Rice seeds varieties IR-64 and Arborio, Echinochloa crus-galli (ECHCG), and Leptochloa chinensis (LEFCH) were sown in seed trays containing a standard sandy loam soil saturated with water replicating swampy conditions. They were sown at intervals to achieve plants at the following growth stages at time of application: IR-64 and Arborio rice: from 3 leaves on the main stem to tillering; ECHCG: at two different leaf stages: 0-0.5 leaf and 2-3 leaf; LEFCH: 3 leaf. Glasshouse bay conditions were 30/20° C. day/night; 18/6 hours light/dark; 75% humidity.
(§2) The test solutions were prepared by mixing the appropriate aliquots of the test substance (here, compound A-13 as EC050 Formulation Example 1) and adjuvant (0.2% Adsee as adjuvant) in de-ionised water to give the desired treatment concentration.
(§3) Application was as a foliar spray, made using a tracksprayer. 3 days after application the trays were flooded to 2-3 cm water depth, and maintained at this level for the duration of the test.
(§4) No. of repetitions: 1 test only.
(§5) A visual assessment of the % herbicidal damage was made 14 days after application (0=no damage to plants, 100=total kill).

IR-64 rice = assay: Biological Example 4 (Test 110): wet seeded rice (WSR) method, IR-64 rice damage; conditions: for WSR Rice IR-64 % herbicidal damage: EC050 + 0.2% Adsee, foliar spray, 14 days after application
Text: as §1, §2, §3, §4, §5

Arborio rice = assay: Biological Example 4 (Test 110): wet seeded rice (WSR) method, Arborio rice damage; conditions: EC050 + 0.2% Adsee, foliar spray, 14 days after application
Text: as §1, §2, §3, §4, §5

[2] = test system: Echinochloa crus-galli (ECHCG); assay: Biological Example 4 (Test 110): wet seeded rice (WSR) method, ECHCG damage; conditions: for WSR ECHCG 0.5lf % herbicidal damage / WSR ECHCG 3lf % herbicidal damage: EC050 + 0.2% Adsee, foliar spray, 14 days after application; for WSR ECHCG 0.5lf % herbicidal damage: 0.5 leaf stage; for WSR ECHCG 3lf % herbicidal damage: 3 leaf stage
Text: as §1, §2, §3, §4, §5

[3] = test system: Echinochloa crus-galli (ECHCG); assay: Biological Example 3 (Test 120): visual herbicidal damage to flooded ECHCG; conditions: EC050, 14DAA
Description: Rice seeds, variety Koshihikari, were sown in seed trays, after 7 days they were transplanted as 3 groups of 2 plants, into pots containing a standard clay soil saturated with water replicating swampy conditions. These were grown on for 9 days in a glasshouse bay (30/20° C. day/night; 18/6 hours light/dark; 75% humidity). Approx 10-20 seeds of Echinochloa crus-galli were sown into pots 13 days prior to application, in the same conditions as the rice. All pots were flooded to 2-3 cm water depth the day prior to application. Growth stages at time of application were: Rice: 2-3 leaves; ECHCG: 2-3 leaves.
The test solutions were prepared by mixing the appropriate aliquots of the test substance (here, compound A-13 as the EC050 Formulation Example 1 disclosed herein) in de-ionised water to give the desired treatment concentration.
Application was made by pipetting the required amount of the test solution gently into the flood water of the appropriate pot.
The test plants were grown on in the same glasshouse conditions, and watered twice daily keeping the flood water at a depth of 2-3 cm.
as §5

[4] = test system: Echinochloa crus-galli (ECHCG); assay: Biological Example 1 (Test 125): visual herbicidal damage to flooded ECHCG; conditions: 14 DAA
Description: Rice seeds, variety IR-64 (an indica type of rice), were sown in seed trays. After 7 days the resulting plants were transplanted as 3 groups of 2 plants, into pots containing a standard sandy loam soil saturated with water replicating swampy conditions. These were grown on for a further 9 days in a glasshouse bay (30/20° C. day/night; 18/6 hours light/dark; 75% humidity). Leptochloa chinensis (LEFCH) and Echinochloa crus-galli (ECHCG) were sown as 2 separate groups of approx 10-20 seeds into pots 13 days prior to application of the test substances, in the same glasshouse conditions as the rice. Therefore, each pot of weeds contained a group of LEFCH and a separate group of ECHCG. All pots of rice and all pots of weeds were flooded to 2-3 cm water depth the day prior to application of the test substances. Growth stages at time of application were as follows: Rice: from 2 leaves on the main stem up to tillering; ECHCG: from 2 leaves on the main stem up to tillering; LEFCH: 2-3 leaves.
Test solutions were prepared by mixing the appropriate aliquots of the test substances in deionised water to give the desired treatment concentration. Most of the test substances were used as formulated products. Specifically, compound A-13 was applied as the EC050 formulation disclosed in Formulation Example 1 herein (EC=emulsifiable concentrate). Reference compound A-4 was applied as the EC050 formulation disclosed in Reference Formulation Example 2 herein. Pyroxasulfone (a comparator co-herbicide) was applied as the SC050 formulation disclosed in Reference Formulation Example 6 herein (SC=Suspension concentrate). Imazosulfuron (a comparator co-herbicide) was applied as a GR0.25 formulation (GR=granule).
The test substances which were pure active ingredient (e.g. propyrisulfuron & fenoxasulfone & compound A-16) (labelled as ‘Technical’ in the following results table), were prepared by dissolving in 10.56% Emulsogen EL™ (castor oil ethoxylate, CAS Registry number 61791-12-6), 42.22% N-methylpyrrolidone and 42.22% dipropylene glycol mono-ethyl ether to give a stock solution containing 5% of the test substance and 95% of (Emulsogen EL™, N-methylpyrrolidone and dipropylene glycol mono-ethyl ether).
Application of the test substances was made by pipetting the required amount of the test solution or the test formulation gently into the flood water of the appropriate pot.
The test plants were then grown on in the same glasshouse conditions, and watered twice daily keeping the flood water at a depth of 2-3 cm.
A visual assessment of the % herbicidal damage was made 7 & 14 days after application […], and the results are presented herein as % visual herbicidal damage where 0=no damage to plants and 100=total kill.

CC1(C)OC(C)(C)C(O)=C(c2cc(-c3ccc(Cl)cc3F)ccc2C2CC2)C1=O [compound A-13, 4-(4′-Chloro-4-cyclopropyl-2′-fluorobiphenyl-3-yl)-2,2,6,6-tetramethylpyran-3,5-dione]
WSR LEFCH % herbicidal damage ([1]; 8 g/ha): 10% | WSR LEFCH % herbicidal damage ([1]; 60 g/ha): 10% | WSR LEFCH % herbicidal damage ([1]; 125 g/ha): 65% | WSR LEFCH % herbicidal damage ([1]; 500 g/ha): 75% | WSR Rice IR-64 % herbicidal damage (IR-64 rice; 8 g/ha): 0% | WSR Rice IR-64 % herbicidal damage (IR-64 rice; 60 g/ha): 0% | WSR Rice IR-64 % herbicidal damage (IR-64 rice; 125 g/ha): 5% | WSR Rice IR-64 % herbicidal damage (IR-64 rice; 500 g/ha): 35% | selectivity margin between rice and ECHCG (IR-64 rice; Biological Example 4, wet seeded rice, 60 and 125 g/ha): good selectivity margin | WSR Rice Arborio % herbicidal damage (Arborio rice; 8 g/ha): 0% | WSR Rice Arborio % herbicidal damage (Arborio rice; 60 g/ha): 0% | WSR Rice Arborio % herbicidal damage (Arborio rice; 125 g/ha): 0% | WSR Rice Arborio % herbicidal damage (Arborio rice; 500 g/ha): 60% | WSR ECHCG 0.5lf % herbicidal damage ([2]; 8 g/ha): 45% | WSR ECHCG 3lf % herbicidal damage ([2]; 8 g/ha): 65% | WSR ECHCG control ([2]; 60 and 125 g/ha, 2 growth stages, 0.5 leaf and 3 leaf, wet seeded rice method): 90-100% | WSR ECHCG 0.5lf % herbicidal damage ([2]; 60 g/ha): 90% | WSR ECHCG 3lf % herbicidal damage ([2]; 60 g/ha): 100% | WSR ECHCG 0.5lf % herbicidal damage ([2]; 125 g/ha): 100% | WSR ECHCG 3lf % herbicidal damage ([2]; 125 g/ha): 100% | WSR ECHCG 0.5lf % herbicidal damage ([2]; 500 g/ha): 100% | WSR ECHCG 3lf % herbicidal damage ([2]; 500 g/ha): 100% | ECHCG % herbicidal damage, Mean of 2 repetitions ([3]; 30 g/ha): 58% | ECHCG % herbicidal damage, Repetition A ([3]; 30 g/ha): 55% | ECHCG % herbicidal damage, Repetition B ([3]; 30 g/ha): 60% | ECHCG % herbicidal damage, Mean of 2 repetitions ([3]; 60 g/ha): 63% | ECHCG % herbicidal damage, Repetition A ([3]; 60 g/ha): 65% | ECHCG % herbicidal damage, Repetition B ([3]; 60 g/ha): 60% | ECHCG % herbicidal damage, Mean of 2 repetitions ([3]; 125 g/ha): 88% | ECHCG % herbicidal damage, Repetition A ([3]; 125 g/ha): 85% | ECHCG % herbicidal damage, Repetition B ([3]; 125 g/ha): 90% | ECHCG control (span of the 2 repetitions) ([3]; 125 g/ha): 85-90% | ECHCG control ([4]; 60 g/ha applied alone (EC050)): 35% | ECHCG control ([4]; 90 g/ha applied alone (EC050)): 55% | ECHCG control ([4]; 120 g/ha applied alone (EC050)): 55%
